Experimental data: PMC12687421, “Characterisation of an allosteric site in PLCγ enzymes and implications for development of their specific inhibitors” (Biochemical Journal, 2025)

How the values were obtained:
[1] = biological target: T1, PLCβ2 (Homo sapiens, UniProt Q00722); experiment: PLC activity assay 1 (A1), PLCβ2; format: biochemical; conditions: substrate in solution or in lipid vesicles (Figure 3C, D); except small changes at very high concentration
T1 construct: made in house; host or cells: Escherichia coli T7 Express lysY/Iq
T1 sequence (Q00722 whole entry, species assumed): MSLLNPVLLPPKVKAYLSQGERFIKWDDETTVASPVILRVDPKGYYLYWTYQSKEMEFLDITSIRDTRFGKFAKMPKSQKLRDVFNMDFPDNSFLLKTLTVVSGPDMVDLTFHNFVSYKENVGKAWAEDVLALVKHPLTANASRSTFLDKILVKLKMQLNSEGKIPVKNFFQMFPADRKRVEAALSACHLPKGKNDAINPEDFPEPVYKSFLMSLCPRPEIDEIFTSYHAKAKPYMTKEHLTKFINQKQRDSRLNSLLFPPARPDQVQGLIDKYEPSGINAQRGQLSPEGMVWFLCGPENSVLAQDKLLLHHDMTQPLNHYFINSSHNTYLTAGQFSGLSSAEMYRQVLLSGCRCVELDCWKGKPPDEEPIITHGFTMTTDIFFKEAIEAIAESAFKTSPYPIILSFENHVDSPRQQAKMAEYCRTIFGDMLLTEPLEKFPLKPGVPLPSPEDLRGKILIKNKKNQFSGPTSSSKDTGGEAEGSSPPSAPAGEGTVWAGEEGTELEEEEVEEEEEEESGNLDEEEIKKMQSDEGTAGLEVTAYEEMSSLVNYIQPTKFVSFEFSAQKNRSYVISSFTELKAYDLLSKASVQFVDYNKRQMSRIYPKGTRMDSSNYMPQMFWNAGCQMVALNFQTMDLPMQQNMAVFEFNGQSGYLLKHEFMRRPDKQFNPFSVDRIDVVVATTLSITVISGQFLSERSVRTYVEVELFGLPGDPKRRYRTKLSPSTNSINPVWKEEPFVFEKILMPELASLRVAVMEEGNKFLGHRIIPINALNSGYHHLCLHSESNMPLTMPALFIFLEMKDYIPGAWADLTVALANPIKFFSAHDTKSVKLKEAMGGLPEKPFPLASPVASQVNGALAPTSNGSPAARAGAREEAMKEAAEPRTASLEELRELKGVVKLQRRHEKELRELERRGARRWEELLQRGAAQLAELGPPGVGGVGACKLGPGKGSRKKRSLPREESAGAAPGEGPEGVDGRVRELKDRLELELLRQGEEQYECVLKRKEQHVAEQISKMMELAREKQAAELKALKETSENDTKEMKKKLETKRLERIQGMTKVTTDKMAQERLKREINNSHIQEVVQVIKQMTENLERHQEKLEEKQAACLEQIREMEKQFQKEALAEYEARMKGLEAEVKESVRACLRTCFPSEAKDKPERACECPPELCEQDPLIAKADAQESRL
Procedure: (§1) The effect of nucleotide inhibition on PLC activity was measured using either a membrane-based assay with the fluorescent substrate (XY-69) incorporated into liposomes or using a small soluble substrate, Aldol 518 myo-inositol-1-phosphate (Aldol). Both methods utilised the same PLC assay buffer [20 mM Hepes-KOH, 70 mM KCl, 3 mM EGTA, 2.97 mM CaCl2, 2 mM TCEP and fatty acid-free bovine serum albumin (FAF-BSA; 50 μg/ml) (pH 7.5)]. Both assays were performed in low volume black 384-well plates (Greiner Bio-One), were composed of a final assay volume of 20 μl and were monitored in a Clariostar plate reader (BMG Labtech). The Aldol assay consisted of 4 μl of a serial dilution of ATP/ADP in assay buffer, 8 μl of PLC protein (concentration varied between PLC variants), and 8 μl of Aldol 518 myo-inositol-1-phosphate (final concentration in assay, 50 μM). […]
(§2) The XY-69 assay contained 4 μl of a serial dilution of ATP/ADP in assay buffer, 4 μl of PLC protein (concentration varied between PLC variants), and 12 μl of XY69 liposomes (final concentration in assay 1.2 mg/ml). A CLARIOstar plate reader (BMG Labtech) was used to measure the production of the fluorescent product. […] The initial linear rate of product generation was calculated and converted to a % inhibition when compared with the rate of PLC activity in the absence of nucleotide. […]

[2] = biological target: T2, PLCδ1 (Homo sapiens, UniProt P51178); experiment: PLC activity assay 1 (A1), PLCδ1; format: biochemical; conditions: substrate in solution or in lipid vesicles (Figure 3C, D); except small changes at very high concentration
T2 construct: made in house; host or cells: Escherichia coli T7 Express lysY/Iq
T2 sequence (P51178 1-756): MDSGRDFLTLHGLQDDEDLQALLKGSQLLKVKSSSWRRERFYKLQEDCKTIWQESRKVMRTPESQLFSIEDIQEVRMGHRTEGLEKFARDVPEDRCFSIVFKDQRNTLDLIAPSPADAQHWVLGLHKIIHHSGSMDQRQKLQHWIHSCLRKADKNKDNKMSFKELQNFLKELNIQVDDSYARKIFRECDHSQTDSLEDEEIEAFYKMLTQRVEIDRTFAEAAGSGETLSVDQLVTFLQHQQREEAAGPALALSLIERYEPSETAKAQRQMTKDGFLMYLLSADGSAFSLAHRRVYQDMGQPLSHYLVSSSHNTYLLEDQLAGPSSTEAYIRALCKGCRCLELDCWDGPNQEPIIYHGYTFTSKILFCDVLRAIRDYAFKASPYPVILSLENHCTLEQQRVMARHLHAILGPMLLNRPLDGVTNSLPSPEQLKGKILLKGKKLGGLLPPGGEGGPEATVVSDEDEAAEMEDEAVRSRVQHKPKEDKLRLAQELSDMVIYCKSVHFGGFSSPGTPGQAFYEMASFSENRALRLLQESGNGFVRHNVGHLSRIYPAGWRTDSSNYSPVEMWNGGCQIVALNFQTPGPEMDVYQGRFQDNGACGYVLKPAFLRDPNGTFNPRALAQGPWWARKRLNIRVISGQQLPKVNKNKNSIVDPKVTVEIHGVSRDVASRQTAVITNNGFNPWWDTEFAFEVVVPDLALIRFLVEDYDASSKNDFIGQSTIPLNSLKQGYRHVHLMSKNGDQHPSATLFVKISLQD
Procedure: as §1, §2

[3] = biological target: T3, PLCγ1^wt (Homo sapiens, UniProt P19174, I813T); experiment: Microscale thermophoresis (MST) binding; conditions: one-site binding model
T3 construct: specific activities of PLCγ1^wt and PLCγ2^wt full-length proteins; made in house; host or cells: Escherichia coli T7 Express lysY/Iq
T3 sequence (P19174 1-1291 isoform P19174-2 I813T): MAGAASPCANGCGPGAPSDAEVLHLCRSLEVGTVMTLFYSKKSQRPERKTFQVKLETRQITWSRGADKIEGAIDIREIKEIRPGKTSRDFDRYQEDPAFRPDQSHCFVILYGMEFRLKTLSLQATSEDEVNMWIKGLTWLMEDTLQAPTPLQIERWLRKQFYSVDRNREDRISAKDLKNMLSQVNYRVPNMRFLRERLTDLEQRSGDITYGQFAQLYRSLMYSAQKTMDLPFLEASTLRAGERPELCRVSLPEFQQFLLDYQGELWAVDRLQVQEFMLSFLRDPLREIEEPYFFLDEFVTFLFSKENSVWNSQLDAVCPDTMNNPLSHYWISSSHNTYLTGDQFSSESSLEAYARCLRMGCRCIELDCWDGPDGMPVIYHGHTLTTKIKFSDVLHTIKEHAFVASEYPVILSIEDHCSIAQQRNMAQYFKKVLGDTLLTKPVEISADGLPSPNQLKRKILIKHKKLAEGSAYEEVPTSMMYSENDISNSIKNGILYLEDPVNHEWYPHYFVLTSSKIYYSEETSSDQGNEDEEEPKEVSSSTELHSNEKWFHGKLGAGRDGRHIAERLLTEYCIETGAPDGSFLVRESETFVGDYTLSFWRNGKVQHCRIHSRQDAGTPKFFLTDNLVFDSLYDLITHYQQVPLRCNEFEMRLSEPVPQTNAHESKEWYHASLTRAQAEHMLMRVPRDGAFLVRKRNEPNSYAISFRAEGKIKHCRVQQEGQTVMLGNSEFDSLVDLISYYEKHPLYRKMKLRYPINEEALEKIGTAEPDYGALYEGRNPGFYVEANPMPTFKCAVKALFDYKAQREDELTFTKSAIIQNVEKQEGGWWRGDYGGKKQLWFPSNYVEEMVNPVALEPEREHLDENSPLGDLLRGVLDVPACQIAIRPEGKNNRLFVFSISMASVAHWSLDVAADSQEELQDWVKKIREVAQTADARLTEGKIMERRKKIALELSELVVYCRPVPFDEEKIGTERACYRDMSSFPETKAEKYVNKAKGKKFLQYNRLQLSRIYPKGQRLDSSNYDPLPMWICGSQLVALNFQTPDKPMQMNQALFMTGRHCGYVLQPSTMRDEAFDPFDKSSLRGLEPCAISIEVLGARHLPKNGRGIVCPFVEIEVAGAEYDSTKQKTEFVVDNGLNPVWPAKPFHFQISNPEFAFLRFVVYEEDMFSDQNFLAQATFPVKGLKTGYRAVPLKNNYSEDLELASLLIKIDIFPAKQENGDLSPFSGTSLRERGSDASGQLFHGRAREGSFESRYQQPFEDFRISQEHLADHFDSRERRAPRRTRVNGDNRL
Procedure: Proteins were diluted to 200 nM in MST buffer [50 mM Hepes.KOH, 70 mM KCl, 5% (v/v) glycerol, 0.05% (v/v) Tween-20, 2 mM DTT (pH 7.5)] and subsequently labelled by adding an equal volume of 100 nM 2nd generation RED-Tris-NTA labelling dye and incubating for 30 minutes. […] An equal volume of labelled protein was added to each ligand concentration and the mixture taken up into a standard MST capillary. Samples were measured in a Monolith NT.115 pico instrument (Nanotemper) using the Nano-RED channel. Excitation power was set to 5% and MST power set to high. All experiments were performed at 25°C. All data were analysed using the manufacturer’s MO.Control software and repeated at least three times with representative experiments shown.

SMILES	effect on PLC activity of PLCβ2 [1]	effect on PLC activity of PLCδ1 [2]	Kd [3]
Nc1ncnc2c1ncn2[C@@H]1O[C@H](COP(=O)(O)OP(=O)(O)OP(=O)(O)O)[C@@H](O)[C@H]1O [ATP]	not affected	not affected	30 to 50 µM
Nc1ncnc2c1ncn2[C@@H]1O[C@H](COP(=O)(O)OP(=O)(O)O)[C@@H](O)[C@H]1O [ADP]	not affected	not affected	30 to 50 µM
